Reference: patent US20090179638A1, “ASSAY FOR IDENTIFYING INHIBITORS OF NEURONAL APOPTOTIC PATHWAYS” (AEGERA THERAPEUTICS INC., priority 2006, published 2009)
Entries after “also recorded” stand apart in the source; their conditions may differ.

Assays:
[1] = system: PC12^rtTA cells; test: p75NTR- or NRAGE-induced cell death of PC12rtTA cells (LDH release assay); format: cell-based; conditions: for protection from Adp75- or AdNRG-induced cell death: increasing concentrations, LDH
Experimental: FIGS. 2A and 2B are graphs showing that compound 1 inhibits p75NTR or NRAGE induced JNK activation and cell death. Compound 1 inhibits NRAGE (A) or p75NTR (B) mediated cell death. PC12^rtTA cells were infected with recombinant adenoviruses expressing full-length NRAGE (AdNRG) at 5 MOI, full length p75NTR (Adp75) at 50 or 100 MOI, or the control protein β-galactosidase (AdLacZ) (at 5 MOI in (A) and 50 MOI in (B)). At time of infection, the cells were treated with an increasing concentration of compound 1, or with vehicle alone, as indicated. After 40 hours, cells were assayed for death using the lactate dehydrogenase (LDH) assay; untreated cells (Un) and cells treated with 1% Triton X-100 (Tx) were used to delineate the output range of the assay. Results are normalized relative to those obtained with 1% Triton (Tx), and represent the mean±standard deviation of a representative experiment performed in triplicate (*=P<0.005 relative to no compound 1).
PC12^rtTA were infected with adenoviruses encoding p75NTR (Adp75), NRAGE (AdNRG), or as a control, LacZ (AdLacZ), and were concurrently exposed to increasing concentrations of compound 1 for a period of 40 hours. Cell death was assessed using an LDH release assay. […] Treatment with 40 μM compound 1 reduced p75NTR- or NRAGE-induced cell death by greater than 90%.
(§1) Cell culture, infection, transfection and immunoblotting. Sympathetic neurons were maintained and deprived of NGF as previously described (Bamji et al., 1998; Ma et al., 1992). PC12^rtTA cells were maintained and infected as previously described (Majdan et al., 1997; Salehi et al., 2002); for NRAGE, […] doxycycline was added to all plates at time of infection. Wildtype and HSF1 nullizygous immortalized mouse embryonic fibroblasts (MEFs) were maintained in DMEM containing 10% fetal calf serum, 1 μM β-mercaptoethanol, 1% non-essential amino acids, 1% L-glutamine, 1% antimycotic solution and 1% sodium pyruvate (all from GibcoBRL). Sympathetic neuron survival was assessed using the MTS assay according to the manufacturer's instructions (Promega). Analysis of PC12 cell death was determined using a lactate dehydrogenase (LDH) assay (Roche) as per the manufacturer's instructions. Transfections using plasmids or RNAi were performed using Lipofectamine 2000. Immunoblotting was performed as previously described (Majdan et al., 1997; Salehi et al., 2002).

[2] = system: JNK; test: NRAGE- and p75NTR-induced JNK activation in PC12rtTA cells (c-Jun phosphorylation, caspase-3 cleavage, immunoblot); format: cell-based; conditions: for c-Jun phosphorylation: AdNRG infected, 30 hours (FIG. 6C)
Experimental: FIGS. 2C and 2D are photographs of Western blots which illustrate that compound 1 inhibits NRAGE- and p75NTR-induced JNK activation. C, D: Compound 1 inhibits NRAGE- and p75NTR-induced JNK activation. PC12^rtTA cells were infected with AdNRG at 5 MOI (C), with Adp75 at 50 MOI (D), or with AdLacZ at an equivalent MOI for each experiment, as indicated. At time of infection, the cells were treated with increasing concentrations of compound 1, or with vehicle alone, as indicated. […] Experiments in Panel A-D were performed three times with essentially identical results.
Activation of JNK activity is necessary for the induction of p75NTR- or NRAGE-initiated caspase cleavage and cell death (Bhakar et al., 2003; Salehi et al., 2002). Therefore, the effect of compound 1 on the activity of JNK was assessed by analyzing alterations in the phosphorylation level of the JNK target, c-Jun, and the cleavage status of caspase-3. […] Thus, the suppression of JNK signaling and caspase-3 cleavage mediated by compound 1 occurred with a dose-dependency similar to the anti-apoptotic activity of compound 1.
as §1

| Compound | reduction of p75NTR- or NRAGE-induced cell death ([1]; 40 μM, 40 hours, LDH release) | toxic effect in cells infected with the LacZ control ([1]; 80 μM) | inhibition of p75NTR- or NRAGE-induced apoptosis ([1]; 80 μM (highest concentration tested)) | protection from Adp75- or AdNRG-induced cell death ([1]; 40 hours) | c-Jun phosphorylation and caspase-3 cleavage ([2]; 10 μM, AdNRG infected cells) | decrease in c-Jun phosphorylation and caspase-3 cleavage ([2]; 40 μM, AdNRG infected cells) | c-Jun phosphorylation ([2]; 40 μM) | ability to block c-jun phosphorylation in cells transfected with HSP70 RNAi ([2]; HSP70 siRNA transfected PC12rtTA cells) | JNK inhibitory effects ([2]; extended (24 hour) incubation, 40 μM) | JNK inhibitory effects ([2]; short term (1 hr) incubation, 40 μM) |
| --- | --- | --- | --- | --- | --- | --- | --- | --- | --- | --- |
| NS(=O)(=O)c1nn2cc(-c3ccccc3)nc2s1 [Compound 1] | greater than 90% | slight toxic effect | effectively inhibited apoptosis | strongly attenuated; also recorded: protected | significant decrease | virtually complete | reducing | small but consistent attenuation | occurred | not short term |
| NS(=O)(=O)c1nn2cc(-c3ccc(N4CCOCC4)cc3)nc2s1 [Compound 2] |  |  |  | protected |  |  | reducing |  |  |  |
